How the values were obtained:
Experiment in all cases: relative viability (nuclei count vs DMSO), 5 days (fraction); higher = more cells survive
NCI-H1734 = tested on: NCI-H1734
Summary of the method: (§1)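 Relative viability is defined as nuclei in treated wells over nuclei in vehicle wells. Duplicate plates were run and medians reported. Lung cancer cell lines in 1536-well plates were dosed by pin tool one day after seeding, with one drug or with a fixed anchor-drug dose plus five library-drug doses (not always all listed) in √10 steps, and nuclei were counted after 5 days.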

LCLC-97TM1 = tested on: LCLC-97TM1
Summary of the method: as §1

NCI-H2085 = tested on: NCI-H2085
Summary of the method: as §1

SW 1573 = tested on: SW 1573
Summary of the method: as §1

NCI-H647 = tested on: NCI-H647
Summary of the method: as §1

EMC-BAC-2 = tested on: EMC-BAC-2
Summary of the method: as §1

NCI-H2023 = tested on: NCI-H2023
Summary of the method: as §1

NCI-H661 = tested on: NCI-H661
Summary of the method: as §1

NCI-H322M = tested on: NCI-H322M
Summary of the method: as §1

EPLC-272H = tested on: EPLC-272H
Summary of the method: as §1

NCI-H1993 = tested on: NCI-H1993
Summary of the method: as §1

LXF-289 = tested on: LXF-289
Summary of the method: as §1

SK-LU-1 = tested on: SK-LU-1
Summary of the method: as §1

H3255 = tested on: H3255
Summary of the method: as §1

NCI-H1915 = tested on: NCI-H1915
Summary of the method: as §1

HOP-62 = tested on: HOP-62
Summary of the method: as §1

PC-14 = tested on: PC-14
Summary of the method: as §1

NCI-H2126 = tested on: NCI-H2126
Summary of the method: as §1

NCI-H2009 = tested on: NCI-H2009
Summary of the method: as §1

NCI-H727 = tested on: NCI-H727
Summary of the method: as §1

NCI-H1563 = tested on: NCI-H1563
Summary of the method: as §1

NCI-H2347 = tested on: NCI-H2347
Summary of the method: as §1

Molecule `CCN(CC)CCCCNc1ncc2cc(-c3cc(OC)cc(OC)c3)c(NC(=O)NC(C)(C)C)nc2n1` + CS(=O)(=O)N1CCN(Cc2cc3nc(-c4cccc5[nH]ncc45)nc(N4CCOCC4)c3s2)CC1 [Pictilisib] (partner 1 µM) has a relative viability (NCI-H1734; first compound 0.01 µM) of 0.452, a relative viability (NCI-H1734; first compound 0.03162 µM) of 0.424 and a relative viability (NCI-H1734; first compound 0.1 µM) of 0.54. The relative viability (NCI-H1734; first compound 0.3162 µM) was 0.427, the relative viability (NCI-H1734; first compound 1 µM) was 0.395 and the relative viability (LCLC-97TM1; first compound 0.03162 µM) was 0.18. It also gave a relative viability (LCLC-97TM1; first compound 0.1 µM) of 0.162, a relative viability (LCLC-97TM1; first compound 0.3162 µM) of 0.16 and a relative viability (LCLC-97TM1; first compound 1 µM) of 0.178. For the same molecule, the relative viability (NCI-H2085; first compound 0.01 µM) was 0.432, the relative viability (NCI-H2085; first compound 0.03162 µM) was 0.46 and the relative viability (NCI-H2085; first compound 0.1 µM) was 0.233. For the same molecule, the relative viability (NCI-H2085; first compound 0.3162 µM) was 0.512, the relative viability (NCI-H2085; first compound 1 µM) was 0.46 and the relative viability (SW 1573; first compound 0.01 µM) was 0.528. For the same molecule, the relative viability (SW 1573; first compound 0.03162 µM) was 0.48, the relative viability (SW 1573; first compound 0.1 µM) was 0.615 and the relative viability (SW 1573; first compound 0.3162 µM) was 0.66. It also gave a relative viability (SW 1573; first compound 1 µM) of 0.507, a relative viability (NCI-H647; first compound 0.03162 µM) of 0.471 and a relative viability (NCI-H647; first compound 0.1 µM) of 0.486. For the same molecule, the relative viability (NCI-H647; first compound 0.3162 µM) was 0.465, the relative viability (NCI-H647; first compound 1 µM) was 0.348 and the relative viability (EMC-BAC-2; first compound 0.01 µM) was 0.581. It also gave a relative viability (EMC-BAC-2; first compound 0.03162 µM) of 0.507, a relative viability (EMC-BAC-2; first compound 0.1 µM) of 0.546 and a relative viability (EMC-BAC-2; first compound 0.3162 µM) of 0.574. The relative viability (EMC-BAC-2; first compound 1 µM) was 0.456, the relative viability (NCI-H2023; first compound 0.01 µM) was 0.22 and the relative viability (NCI-H2023; first compound 0.03162 µM) was 0.222. For the same molecule, the relative viability (NCI-H2023; first compound 0.1 µM) was 0.221, the relative viability (NCI-H2023; first compound 0.3162 µM) was 0.232 and the relative viability (NCI-H2023; first compound 1 µM) was 0.193. It also gave a relative viability (NCI-H661; first compound 0.01 µM) of 0.403, a relative viability (NCI-H661; first compound 0.03162 µM) of 0.313 and a relative viability (NCI-H661; first compound 0.1 µM) of 0.434. For the same molecule, the relative viability (NCI-H661; first compound 0.3162 µM) was 0.445, the relative viability (NCI-H661; first compound 1 µM) was 0.344 and the relative viability (NCI-H322M; first compound 0.01 µM) was 0.573. It also gave a relative viability (NCI-H322M; first compound 0.03162 µM) of 0.47, a relative viability (NCI-H322M; first compound 0.1 µM) of 0.499 and a relative viability (NCI-H322M; first compound 0.3162 µM) of 0.566. For the same molecule, the relative viability (NCI-H322M; first compound 1 µM) was 0.456, the relative viability (EPLC-272H; first compound 0.01 µM) was 0.288 and the relative viability (EPLC-272H; first compound 0.1 µM) was 0.33. For the same molecule, the relative viability (EPLC-272H; first compound 0.3162 µM) was 0.298, the relative viability (EPLC-272H; first compound 1 µM) was 0.184 and the relative viability (NCI-H1993; first compound 0.01 µM) was 0.759. The relative viability (NCI-H1993; first compound 0.03162 µM) was 0.947, the relative viability (NCI-H1993; first compound 0.1 µM) was 0.861 and the relative viability (NCI-H1993; first compound 0.3162 µM) was 0.86. The relative viability (NCI-H1993; first compound 1 µM) was 0.91, the relative viability (LXF-289; first compound 0.01 µM) was 0.769 and the relative viability (LXF-289; first compound 0.03162 µM) was 0.874. For the same molecule, the relative viability (LXF-289; first compound 0.1 µM) was 0.792, the relative viability (LXF-289; first compound 0.3162 µM) was 0.676 and the relative viability (LXF-289; first compound 1 µM) was 0.386. The relative viability (SK-LU-1; first compound 0.01 µM) was 0.483, the relative viability (SK-LU-1; first compound 0.03162 µM) was 0.427 and the relative viability (SK-LU-1; first compound 0.1 µM) was 0.526. The relative viability (SK-LU-1; first compound 0.3162 µM) was 0.527, the relative viability (SK-LU-1; first compound 1 µM) was 0.393 and the relative viability (H3255; first compound 0.01 µM) was 0.421. It also gave a relative viability (H3255; first compound 0.03162 µM) of 0.485, a relative viability (H3255; first compound 0.1 µM) of 0.569 and a relative viability (H3255; first compound 0.3162 µM) of 0.514. The relative viability (H3255; first compound 1 µM) was 0.501, the relative viability (NCI-H1915; first compound 0.01 µM) was 0.998 and the relative viability (NCI-H1915; first compound 0.03162 µM) was 0.92. For the same molecule, the relative viability (NCI-H1915; first compound 0.1 µM) was 0.93, the relative viability (NCI-H1915; first compound 0.3162 µM) was 1.03 and the relative viability (NCI-H1915; first compound 1 µM) was 0.915. It also gave a relative viability (HOP-62; first compound 0.01 µM) of 0.732, a relative viability (HOP-62; first compound 0.03162 µM) of 0.772 and a relative viability (HOP-62; first compound 0.1 µM) of 0.582. It also gave a relative viability (HOP-62; first compound 0.3162 µM) of 0.747, a relative viability (HOP-62; first compound 1 µM) of 0.985 and a relative viability (PC-14; first compound 0.01 µM) of 0.702. For the same molecule, the relative viability (PC-14; first compound 0.03162 µM) was 0.624, the relative viability (PC-14; first compound 0.1 µM) was 0.658 and the relative viability (PC-14; first compound 0.3162 µM) was 0.807. The relative viability (PC-14; first compound 1 µM) was 0.509, the relative viability (NCI-H2126; first compound 0.01 µM) was 0.498 and the relative viability (NCI-H2126; first compound 0.03162 µM) was 0.489. For the same molecule, the relative viability (NCI-H2126; first compound 0.1 µM) was 0.508, the relative viability (NCI-H2126; first compound 0.3162 µM) was 0.523 and the relative viability (NCI-H2126; first compound 1 µM) was 0.477. For the same molecule, the relative viability (NCI-H2009; first compound 0.01 µM) was 0.727, the relative viability (NCI-H2009; first compound 0.03162 µM) was 0.79 and the relative viability (NCI-H2009; first compound 0.1 µM) was 0.824. It also gave a relative viability (NCI-H2009; first compound 0.3162 µM) of 0.965, a relative viability (NCI-H2009; first compound 1 µM) of 0.815 and a relative viability (NCI-H727; first compound 0.01 µM) of 0.413. For the same molecule, the relative viability (NCI-H727; first compound 0.03162 µM) was 0.417, the relative viability (NCI-H727; first compound 0.1 µM) was 0.362 and the relative viability (NCI-H727; first compound 0.3162 µM) was 0.627. The relative viability (NCI-H727; first compound 1 µM) was 0.41, the relative viability (NCI-H1563; first compound 0.01 µM) was 0.63 and the relative viability (NCI-H1563; first compound 0.03162 µM) was 0.636. For the same molecule, the relative viability (NCI-H1563; first compound 0.1 µM) was 0.634, the relative viability (NCI-H1563; first compound 0.3162 µM) was 0.529 and the relative viability (NCI-H1563; first compound 1 µM) was 0.425. For the same molecule, the relative viability (NCI-H2347; first compound 0.01 µM) was 0.772, the relative viability (NCI-H2347; first compound 0.03162 µM) was 0.656 and the relative viability (NCI-H2347; first compound 0.1 µM) was 0.611. It also gave a relative viability (NCI-H2347; first compound 0.3162 µM) of 0.89 and a relative viability (NCI-H2347; first compound 1 µM) of 0.655.

From the supplement of paper PMC10307832
